# Experimental data taken from PMC11303713, “Allosteric inhibition of CFTR gating by CFTRinh-172 binding in the pore” (Nature Communications, 2024).
# Where “and” joins values, the source holds several entries; their conditions need not be identical. Equal entries are not always repeated. Where two headings read alike, the source gives them in different places.
# Legend:
# Experiment in all cases: Inside-out patch-clamp inhibition of CFTR current by Inh-172
# Assay type in all cases: cell-based
# [1] = target: T1, K95A-CFTR (Homo sapiens, UniProt P13569, K95A)
# T1 construct: expressed in transfected cells; host or cells: CHO cells, pcDNA plasmid
# [2] = target: T2, T1142A-CFTR (Homo sapiens, UniProt P13569, T1142A)
# T2 construct: expressed in transfected cells; host or cells: CHO cells, pcDNA plasmid
# [3] = target: T3, h-pTM8-h-CFTR (human CFTR, three TM8 amino acids replaced with pig's) (Homo sapiens, UniProt P13569, F931L/M929L/T925G); settings: for inhibition at 1 µM: 1000 nM Inh-172; for inhibition at 5 µM: 5000 nM Inh-172; for inhibition at 10 µM: 10000 nM Inh-172
# T3 construct: expressed in transfected cells; host or cells: CHO cells, pcDNA plasmid
# [4] = target: T4, p-hTM8-p-CFTR (pig CFTR, three TM8 amino acids replaced with human's) (Sus scrofa, UniProt Q6PQZ2, G926T/L930M/L932F)
# T4 construct: expressed in transfected cells; host or cells: CHO cells, pcDNA plasmid
# [5] = target: T5, p-hTMD1-p-CFTR (pig CFTR with human CFTR's TMD1) (Sus scrofa, UniProt Q6PQZ2, A115E/A228G/F12V/H39Q/I11V/I421T/I87F/K242R/K407E/L215I/L315F/L328I/M332I/N256S/N426D/P145L/S418N/S41P/S43V/S445N/T209A/V125I/V231I)
# T5 construct: expressed in transfected cells; host or cells: CHO cells, pcDNA plasmid
# [6] = 100 nM Inh-172, read-out: percent inhibition of current, Mean
# [7] = 500 nM Inh-172, read-out: percent inhibition of current, Mean
# [8] = 1000 nM Inh-172, read-out: percent inhibition of current, Mean
# [9] = 1000 nM Inh-172, read-out: percent inhibition of current, individual cell
# [10] = 5000 nM Inh-172, read-out: percent inhibition of current, Mean
# [11] = 5000 nM Inh-172, read-out: percent inhibition of current, individual cell
# [12] = 10000 nM Inh-172, read-out: percent inhibition of current, Mean
# [13] = 10000 nM Inh-172, read-out: percent inhibition of current, individual cell
# [14] = read-out: percent inhibition of current, Mean
# [15] = read-out: percent inhibition of current, individual cell
# T5 sequence (Q6PQZ2 1-1482 with the stated changes): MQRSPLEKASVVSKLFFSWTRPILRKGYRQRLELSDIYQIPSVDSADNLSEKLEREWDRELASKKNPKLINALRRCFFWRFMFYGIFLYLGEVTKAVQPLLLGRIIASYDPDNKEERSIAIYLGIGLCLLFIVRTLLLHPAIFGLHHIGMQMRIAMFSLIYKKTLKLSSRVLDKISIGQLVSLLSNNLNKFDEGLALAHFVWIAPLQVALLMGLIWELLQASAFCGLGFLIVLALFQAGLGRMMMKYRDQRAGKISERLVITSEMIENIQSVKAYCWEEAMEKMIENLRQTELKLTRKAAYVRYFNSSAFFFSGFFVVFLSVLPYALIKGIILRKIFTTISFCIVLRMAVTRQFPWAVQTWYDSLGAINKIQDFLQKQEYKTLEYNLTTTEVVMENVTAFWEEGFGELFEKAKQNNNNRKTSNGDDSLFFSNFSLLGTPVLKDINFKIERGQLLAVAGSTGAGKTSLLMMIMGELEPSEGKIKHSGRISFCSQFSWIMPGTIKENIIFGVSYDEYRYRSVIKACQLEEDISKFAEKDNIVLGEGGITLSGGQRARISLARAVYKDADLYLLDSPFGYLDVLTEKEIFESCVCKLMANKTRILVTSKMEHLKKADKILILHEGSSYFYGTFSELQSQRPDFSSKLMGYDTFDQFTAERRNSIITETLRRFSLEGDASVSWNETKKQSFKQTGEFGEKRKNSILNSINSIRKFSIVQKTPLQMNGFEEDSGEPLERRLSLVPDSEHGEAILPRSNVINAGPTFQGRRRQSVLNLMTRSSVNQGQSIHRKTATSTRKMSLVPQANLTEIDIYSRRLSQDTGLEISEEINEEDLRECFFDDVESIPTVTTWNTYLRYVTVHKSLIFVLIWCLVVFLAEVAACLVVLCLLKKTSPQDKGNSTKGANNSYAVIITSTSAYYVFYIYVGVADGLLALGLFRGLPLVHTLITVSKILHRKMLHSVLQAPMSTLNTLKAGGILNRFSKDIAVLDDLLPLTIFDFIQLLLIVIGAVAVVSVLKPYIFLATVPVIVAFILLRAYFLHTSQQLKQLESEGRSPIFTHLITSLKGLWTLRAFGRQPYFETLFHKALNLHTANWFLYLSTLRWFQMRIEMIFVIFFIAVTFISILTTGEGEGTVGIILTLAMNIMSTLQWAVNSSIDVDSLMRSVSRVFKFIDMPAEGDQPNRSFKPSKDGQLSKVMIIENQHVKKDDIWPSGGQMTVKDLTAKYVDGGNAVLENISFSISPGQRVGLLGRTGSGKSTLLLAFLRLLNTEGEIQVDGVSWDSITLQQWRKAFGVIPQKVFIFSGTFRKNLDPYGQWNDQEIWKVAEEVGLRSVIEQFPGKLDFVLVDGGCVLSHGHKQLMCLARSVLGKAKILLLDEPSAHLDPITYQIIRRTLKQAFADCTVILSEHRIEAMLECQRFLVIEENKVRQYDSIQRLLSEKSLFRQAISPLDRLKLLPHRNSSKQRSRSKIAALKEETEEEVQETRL
# T1 sequence (P13569 whole entry K95A): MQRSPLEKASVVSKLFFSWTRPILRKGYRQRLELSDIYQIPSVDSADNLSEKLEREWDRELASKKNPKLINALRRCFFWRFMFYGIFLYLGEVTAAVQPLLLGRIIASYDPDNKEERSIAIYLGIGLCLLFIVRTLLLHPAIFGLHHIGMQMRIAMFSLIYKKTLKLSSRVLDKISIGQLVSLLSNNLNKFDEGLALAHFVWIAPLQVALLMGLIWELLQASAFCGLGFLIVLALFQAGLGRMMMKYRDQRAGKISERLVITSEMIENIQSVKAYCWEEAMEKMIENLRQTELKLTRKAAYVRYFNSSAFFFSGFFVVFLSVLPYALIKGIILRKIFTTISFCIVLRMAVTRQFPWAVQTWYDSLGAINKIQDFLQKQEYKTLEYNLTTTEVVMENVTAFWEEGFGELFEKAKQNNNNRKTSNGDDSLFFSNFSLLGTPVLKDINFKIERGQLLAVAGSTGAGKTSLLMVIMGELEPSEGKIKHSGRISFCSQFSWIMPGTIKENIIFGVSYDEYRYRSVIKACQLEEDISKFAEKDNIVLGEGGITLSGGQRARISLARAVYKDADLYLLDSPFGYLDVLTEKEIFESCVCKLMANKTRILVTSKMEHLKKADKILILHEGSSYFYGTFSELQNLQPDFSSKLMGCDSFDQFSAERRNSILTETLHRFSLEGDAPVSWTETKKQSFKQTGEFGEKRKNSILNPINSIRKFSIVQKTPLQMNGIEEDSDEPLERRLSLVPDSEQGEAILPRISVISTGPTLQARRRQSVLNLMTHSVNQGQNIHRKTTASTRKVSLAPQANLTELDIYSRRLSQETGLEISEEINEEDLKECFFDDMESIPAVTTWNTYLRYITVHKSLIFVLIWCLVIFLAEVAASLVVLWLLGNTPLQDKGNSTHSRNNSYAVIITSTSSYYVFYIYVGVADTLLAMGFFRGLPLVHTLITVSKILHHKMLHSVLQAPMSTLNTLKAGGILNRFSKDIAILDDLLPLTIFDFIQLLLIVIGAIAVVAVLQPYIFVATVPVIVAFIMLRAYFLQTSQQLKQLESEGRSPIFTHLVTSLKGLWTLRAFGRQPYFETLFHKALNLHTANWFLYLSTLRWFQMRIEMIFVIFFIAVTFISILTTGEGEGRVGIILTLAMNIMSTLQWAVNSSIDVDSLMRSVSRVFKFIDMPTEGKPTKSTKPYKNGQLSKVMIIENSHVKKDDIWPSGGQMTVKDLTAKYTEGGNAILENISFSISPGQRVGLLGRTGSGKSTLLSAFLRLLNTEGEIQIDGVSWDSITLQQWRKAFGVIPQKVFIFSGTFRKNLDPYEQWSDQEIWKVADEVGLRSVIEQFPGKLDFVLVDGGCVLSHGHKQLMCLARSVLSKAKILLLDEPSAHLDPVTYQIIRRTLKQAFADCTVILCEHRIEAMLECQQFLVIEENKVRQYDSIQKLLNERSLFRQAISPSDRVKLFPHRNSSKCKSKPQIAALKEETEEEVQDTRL
# T3 sequence (P13569 whole entry T925G/M929L/F931L): as the sequence (P13569 whole entry K95A) above, with A95K, T925G, M929L, F931L counted along it
# T4 sequence (Q6PQZ2 whole entry G926T/L930M/L932F): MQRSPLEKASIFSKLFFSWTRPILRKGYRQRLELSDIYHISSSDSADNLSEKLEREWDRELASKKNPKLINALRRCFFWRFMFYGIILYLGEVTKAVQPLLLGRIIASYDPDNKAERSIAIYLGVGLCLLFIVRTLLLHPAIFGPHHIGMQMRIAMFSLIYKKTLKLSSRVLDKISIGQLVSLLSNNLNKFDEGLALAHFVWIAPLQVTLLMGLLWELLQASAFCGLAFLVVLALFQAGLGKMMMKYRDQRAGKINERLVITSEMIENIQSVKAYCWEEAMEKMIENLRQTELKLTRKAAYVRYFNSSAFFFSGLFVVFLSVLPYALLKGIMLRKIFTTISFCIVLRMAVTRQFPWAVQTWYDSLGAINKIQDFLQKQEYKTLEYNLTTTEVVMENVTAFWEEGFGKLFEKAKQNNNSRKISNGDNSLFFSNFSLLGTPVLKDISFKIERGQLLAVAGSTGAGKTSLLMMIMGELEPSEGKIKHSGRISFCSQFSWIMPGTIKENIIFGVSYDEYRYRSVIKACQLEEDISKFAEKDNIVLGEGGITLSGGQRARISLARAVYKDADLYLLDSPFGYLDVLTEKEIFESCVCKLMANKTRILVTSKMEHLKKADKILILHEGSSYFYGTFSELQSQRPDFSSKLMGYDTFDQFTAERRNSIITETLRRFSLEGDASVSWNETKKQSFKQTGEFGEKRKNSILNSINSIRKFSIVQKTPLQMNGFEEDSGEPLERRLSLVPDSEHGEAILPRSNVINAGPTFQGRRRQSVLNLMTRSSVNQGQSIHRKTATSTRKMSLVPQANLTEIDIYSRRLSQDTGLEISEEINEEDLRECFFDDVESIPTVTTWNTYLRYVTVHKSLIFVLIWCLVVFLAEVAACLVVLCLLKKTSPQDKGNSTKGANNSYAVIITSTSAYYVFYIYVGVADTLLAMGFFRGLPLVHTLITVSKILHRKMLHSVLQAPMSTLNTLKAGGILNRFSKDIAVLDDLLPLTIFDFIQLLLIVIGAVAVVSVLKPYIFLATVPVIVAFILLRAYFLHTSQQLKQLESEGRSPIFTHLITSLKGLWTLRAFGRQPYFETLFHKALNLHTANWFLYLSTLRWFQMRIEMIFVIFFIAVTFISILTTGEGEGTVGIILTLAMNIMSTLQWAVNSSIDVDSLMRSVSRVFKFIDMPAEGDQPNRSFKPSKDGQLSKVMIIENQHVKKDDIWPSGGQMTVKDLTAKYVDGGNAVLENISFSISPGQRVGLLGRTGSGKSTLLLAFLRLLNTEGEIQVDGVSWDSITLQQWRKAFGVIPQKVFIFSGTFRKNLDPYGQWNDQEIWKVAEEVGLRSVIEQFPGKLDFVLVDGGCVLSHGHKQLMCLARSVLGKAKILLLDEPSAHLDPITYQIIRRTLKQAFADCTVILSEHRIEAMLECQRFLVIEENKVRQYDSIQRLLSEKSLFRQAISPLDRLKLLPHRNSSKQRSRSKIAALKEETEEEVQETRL
# T2 sequence (P13569 whole entry T1142A): as the sequence (P13569 whole entry K95A) above, with A95K, T1142A counted along it
smiles,measurement,setting,value
"O=C(O)c1ccc(/C=C2\SC(=S)N(c3cccc(C(F)(F)F)c3)C2=O)cc1 [Inh-172, CFTRinh-172]","percent inhibition of current, individual cell",[1]; 100 nM Inh-172,10.0 and 13.0 and 19.0 and 9.0 and 7.0 and 15.0
same,inhibition at 0.1 µM,[1]; [6],12.2%
same,inhibition at 0.5 µM,"[1]; 0.5 µM Inh-172, read-out: K95A-CFTR current inhibited",~40%
same,"percent inhibition of current, individual cell",[1]; 500 nM Inh-172,23.0 and 38.0 and 46.0 and 31.0 and 29.0 and 42.0
same,inhibition at 0.5 µM,[1]; [7],34.8%
same,"percent inhibition of current, individual cell",[1]; 1000 nM Inh-172,58.0 and 62.0 and 47.0 and 59.0
same,inhibition at 1 µM,[1]; [8],55.8%
same,inhibition at 1 µM,[1]; [9],51%
same,"percent inhibition of current, individual cell",[1]; 5000 nM Inh-172,88.0 and 84.0 and 81.0 and 85.0
same,inhibition at 5 µM,[1]; [10],84.2%
same,inhibition at 5 µM,[1]; [11],78%
same,"percent inhibition of current, individual cell",[1]; 10000 nM Inh-172,95.0 and 94.0 and 93.0 and 90.0
same,inhibition at 10 µM,[1]; [12],92.3%
same,inhibition at 10 µM,[1]; [13],89%
same,Hill Coefficient,[1]; K95A,0.98 ± 0.05
same,IC50,[1]; K95A,850 ± 50 nM
same,IC50,"[1]; K95A, earlier manuscript version, peer review file",852 nM
same,increase of IC50 by K95A mutation vs WT,[1]; cho cells inside-out patch,10 fold
same,"percent inhibition of current, individual cell",[2]; 100 nM Inh-172,28.0 and 24.0 and 52.0 and 14.0 and 42.0
same,inhibition at 0.1 µM,[2]; [6],31.3%
same,"percent inhibition of current, individual cell",[2]; 500 nM Inh-172,61.0 and 67.0 and 78.0 and 44.0 and 66.0
same,inhibition at 0.5 µM,[2]; [7],63.2%
same,"percent inhibition of current, individual cell",[2]; 1000 nM Inh-172,74.0 and 70.0 and 87.0 and 60.0 and 78.0
same,inhibition at 1 µM,[2]; [8],73.8%
same,"percent inhibition of current, individual cell",[2]; 5000 nM Inh-172,93.0 and 96.0 and 84.0
same,inhibition at 5 µM,[2]; [10],91.2%
same,inhibition at 5 µM,[2]; [11],90%
same,"percent inhibition of current, individual cell",[2]; 10000 nM Inh-172,98.0 and 92.0
same,inhibition at 10 µM,[2]; [12],96.2%
same,inhibition at 10 µM,[2]; [13],97%
same,Hill Coefficient,[2]; T1142A,0.81 ± 0.02
same,IC50,[2]; T1142A,270 ± 10 nM
same,inhibition at 0.1 µM,[3]; [6],18.4%
same,inhibition at 0.5 µM,[3]; [7],46.3%
same,inhibition at 1 µM,[3]; [14],58.5%
same,inhibition at 1 µM,[3]; [15],68%
same,inhibition at 5 µM,[3]; [14],83.3%
same,inhibition at 5 µM,[3]; [15],89%
same,inhibition at 10 µM,[3]; [14],91%
same,inhibition at 10 µM,[3]; [15],93%
same,Hill Coefficient,[3]; h-pTM8-h,0.80 ± 0.02
same,IC50,[3]; h-pTM8-h,640 ± 20 nM
same,"percent inhibition of current, individual cell",[4]; 25 nM Inh-172,0 and 3
same,inhibition at 0.025 µM,"[4]; 25 nM Inh-172, read-out: percent inhibition of current, Mean",1%
same,"percent inhibition of current, individual cell",[4]; 100 nM Inh-172,18 and 20 and 14 and 17
same,inhibition at 0.1 µM,[4]; [6],16.4%
same,inhibition at 0.1 µM,"[4]; 100 nM Inh-172, read-out: percent inhibition of current, individual cell",13%
same,"percent inhibition of current, individual cell",[4]; 500 nM Inh-172,63 and 60 and 56 and 33 and 23
same,inhibition at 0.5 µM,[4]; [7],47%
same,"percent inhibition of current, individual cell",[4]; 1000 nM Inh-172,53 and 44 and 63
same,inhibition at 1 µM,[4]; [8],54%
same,inhibition at 1 µM,[4]; [9],57%
same,"percent inhibition of current, individual cell",[4]; 10000 nM Inh-172,82 and 85
same,inhibition at 10 µM,[4]; [12],89%
same,inhibition at 10 µM,[4]; [13],100%
same,Hill Coefficient,[4]; p-hTM8-p,0.84 ± 0.10
same,IC50,[4]; p-hTM8-p,720 ± 90 nM
same,"percent inhibition of current, individual cell",[5]; 100 nM Inh-172,4 and 3 and 1
same,inhibition at 0.1 µM,[5]; [6],2.7%
same,"percent inhibition of current, individual cell",[5]; 500 nM Inh-172,17 and 15
same,inhibition at 0.5 µM,[5]; [7],17.3%
same,inhibition at 0.5 µM,"[5]; 500 nM Inh-172, read-out: percent inhibition of current, individual cell",20%
same,"percent inhibition of current, individual cell",[5]; 1000 nM Inh-172,30 and 24
same,inhibition at 1 µM,[5]; [8],32%
same,inhibition at 1 µM,[5]; [9],42%
same,"percent inhibition of current, individual cell",[5]; 5000 nM Inh-172,67 and 68
same,inhibition at 5 µM,[5]; [10],68.7%
same,inhibition at 5 µM,[5]; [11],71%
same,"percent inhibition of current, individual cell",[5]; 10000 nM Inh-172,83 and 81
same,inhibition at 10 µM,[5]; [12],83.3%
same,inhibition at 10 µM,[5]; [13],86%
same,Hill Coefficient,[5]; p-hTMD1-p,1.03 ± 0.03
same,IC50,[5]; p-hTMD1-p,2210 ± 70 nM
